Assay results as given in patent publication US9783536B2, “Nitrogen-containing heterocyclic compound or salt thereof” (FUJIFILM Corporation, priority 2013, dated 2017).

Legend:
human PI3Kα protein = target: T1, human PI3Kα protein (Homo sapiens, UniProt P42336); experiment: PI3Kα enzyme assay (ADP-Glo); type: biochemical; details: read-out: PI3Kα enzyme inhibitory activity
T1 construct: purchased Carna Biosciences, Inc; host or cells: baculovirus expression system
Outline: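 Biotinylated human PI3Kα (baculovirus-expressed, 4.5 nmol/L) pre-incubated 15 min with compound in Tris-HCl pH 7.5, MgCl2, BSA; reaction 60 min at 25° C with 50 μmol/L PIP2 and 100 μmol/L ATP final. ADP quantified by ADP-Glo luminescence; IC50 calculated.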

[1] = target: T2, GST fusion human ERK2 protein (Homo sapiens, UniProt P28482); experiment: ERK2 enzyme assay (2); type: biochemical; details: read-out: ERK2 enzyme inhibitory activity (2)
T2 construct: purchased Carna Biosciences, Inc; host or cells: E. coli expression system
Outline: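 GST-tagged human ERK2 expressed in E. coli (1.25 nmol/L) was preincubated with compound for 15 min at room temperature in pH 7.5 Hepes buffer with MgCl2, DTT and Brij35. Reaction with FL-Peptide 8 (final 4.25 μmol/L) and ATP (final 1 mmol/L) ran 120 min at 25 °C; EDTA stopped it, and phosphorylated peptide was quantified by mobility-shift separation to derive IC50.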

T2 sequence (P28482 whole entry, the tested form may be a part): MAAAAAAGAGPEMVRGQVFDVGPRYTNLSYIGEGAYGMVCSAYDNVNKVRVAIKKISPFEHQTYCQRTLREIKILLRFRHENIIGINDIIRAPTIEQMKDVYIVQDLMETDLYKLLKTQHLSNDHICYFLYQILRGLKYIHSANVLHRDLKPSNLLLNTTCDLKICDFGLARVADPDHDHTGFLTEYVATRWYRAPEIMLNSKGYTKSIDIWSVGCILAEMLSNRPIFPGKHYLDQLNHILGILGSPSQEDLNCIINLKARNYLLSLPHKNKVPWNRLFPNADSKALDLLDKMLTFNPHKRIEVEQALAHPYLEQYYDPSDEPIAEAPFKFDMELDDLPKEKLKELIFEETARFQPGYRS
T1 sequence (P42336 whole entry): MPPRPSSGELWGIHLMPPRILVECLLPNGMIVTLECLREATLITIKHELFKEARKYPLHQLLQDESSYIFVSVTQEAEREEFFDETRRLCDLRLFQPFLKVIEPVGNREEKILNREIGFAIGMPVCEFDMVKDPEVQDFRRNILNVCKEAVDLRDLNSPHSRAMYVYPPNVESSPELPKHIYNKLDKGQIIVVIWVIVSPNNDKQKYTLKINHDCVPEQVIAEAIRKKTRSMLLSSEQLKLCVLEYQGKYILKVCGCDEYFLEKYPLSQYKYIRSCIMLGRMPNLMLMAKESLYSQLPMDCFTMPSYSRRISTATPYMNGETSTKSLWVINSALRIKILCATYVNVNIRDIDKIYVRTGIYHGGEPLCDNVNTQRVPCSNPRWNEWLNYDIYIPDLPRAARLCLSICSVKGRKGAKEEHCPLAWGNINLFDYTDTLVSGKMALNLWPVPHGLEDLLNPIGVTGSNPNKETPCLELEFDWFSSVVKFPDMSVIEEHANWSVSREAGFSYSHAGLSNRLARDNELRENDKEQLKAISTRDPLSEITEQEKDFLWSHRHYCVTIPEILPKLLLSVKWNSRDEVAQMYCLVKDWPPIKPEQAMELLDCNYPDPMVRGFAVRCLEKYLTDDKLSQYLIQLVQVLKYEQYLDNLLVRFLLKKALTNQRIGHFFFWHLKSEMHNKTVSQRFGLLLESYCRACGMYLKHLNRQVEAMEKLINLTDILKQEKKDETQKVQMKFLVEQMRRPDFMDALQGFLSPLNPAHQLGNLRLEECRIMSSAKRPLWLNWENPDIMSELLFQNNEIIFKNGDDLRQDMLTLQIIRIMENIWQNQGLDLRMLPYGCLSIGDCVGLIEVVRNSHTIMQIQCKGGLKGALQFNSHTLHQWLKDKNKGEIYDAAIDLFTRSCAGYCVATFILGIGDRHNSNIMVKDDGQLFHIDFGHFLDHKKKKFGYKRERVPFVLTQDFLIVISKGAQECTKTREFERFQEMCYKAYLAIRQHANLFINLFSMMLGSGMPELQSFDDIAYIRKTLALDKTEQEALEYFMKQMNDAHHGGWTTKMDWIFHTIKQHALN
T1 sequence (P27986 whole entry partner): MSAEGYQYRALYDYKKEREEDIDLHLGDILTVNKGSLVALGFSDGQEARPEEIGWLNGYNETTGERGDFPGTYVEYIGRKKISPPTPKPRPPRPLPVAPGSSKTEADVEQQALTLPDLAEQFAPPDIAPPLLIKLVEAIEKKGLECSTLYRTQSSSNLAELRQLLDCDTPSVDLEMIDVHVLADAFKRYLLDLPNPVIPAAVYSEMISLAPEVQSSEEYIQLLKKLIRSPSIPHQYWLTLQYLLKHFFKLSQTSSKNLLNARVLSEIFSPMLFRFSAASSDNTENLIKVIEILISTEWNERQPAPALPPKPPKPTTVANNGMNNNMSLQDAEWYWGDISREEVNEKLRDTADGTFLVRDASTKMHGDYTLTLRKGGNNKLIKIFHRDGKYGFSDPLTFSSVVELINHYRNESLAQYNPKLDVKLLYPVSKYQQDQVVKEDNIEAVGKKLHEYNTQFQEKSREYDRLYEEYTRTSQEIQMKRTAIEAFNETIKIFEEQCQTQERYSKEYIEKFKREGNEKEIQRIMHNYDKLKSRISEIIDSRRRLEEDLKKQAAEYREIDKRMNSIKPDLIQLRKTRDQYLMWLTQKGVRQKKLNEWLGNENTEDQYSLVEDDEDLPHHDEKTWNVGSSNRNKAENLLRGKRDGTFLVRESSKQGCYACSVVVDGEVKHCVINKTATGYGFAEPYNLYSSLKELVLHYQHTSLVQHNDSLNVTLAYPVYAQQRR

| SMILES | IC50 (human PI3Kα protein) | IC50 [1] |
| --- | --- | --- |
| CC(C)c1cnnc(Nc2ccc3ncc(NC4CNC4)cc3n2)c1 [Example 0905, N^7-(azetidin-3-yl)-N^2-(5-isopropylpyridazin-3-yl)-1,5-naphthyridine-2,7-diamine] | 1 to 10 µM | 1 to 10 µM |
| CC(C)c1cnnc(Nc2ccc3ncc(C4=CCNC4)cc3n2)c1 [Example 0906, 7-(2,5-Dihydro-1H-pyrrol-3-yl)-N-(5-isopropylpyridazin-3-yl)-1,5-naphthyridine-2-amine] | 1 to 10 µM | < 1 µM |
| CC(C)c1cnnc(Nc2ccc3ncc(C4=CCN(C(=O)N(C)C)C4)cc3n2)c1 [Example 0907, 3-(6-((5-Isopropylpyridazin-3-yl)amino)-1,5-naphthyridin-3-yl)-N,N-dimethyl-2,5-dihydro-1H-pyrrole-1-carboxamide] | < 1 µM | < 1 µM |
| CC(C)c1cnnc(Nc2ccc3ncc(C4=CCN(S(C)(=O)=O)C4)cc3n2)c1 [Example 0908, N-(5-Isopropylpyridazin-3-yl)-7-(1-(methylsulfonyl)-2,5-dihydro-1H-pyrrol-3-yl)-1,5-naphthyridine-2-amine] | < 1 µM | < 1 µM |
| CC(C)c1cnnc(Nc2ccc3ncc(-c4cn(C)nc4CN4CCN(c5ccncc5)CC4)cc3n2)c1 [Example 0909] | < 1 µM | < 1 µM |
| CC(C)c1cnnc(Nc2ccc3ncc(-c4cn(C)nc4COC4COC4)cc3n2)c1 [Example 0911, N-(5-isopropylpyridazin-3-yl)-7-(1-methyl-3-((oxetan-3-yloxy)methyl)-1H-pyrazol-4-yl)-1,5-naphthyridine-2-amine] | < 1 µM | < 1 µM |
| CC(C)c1cnnc(Nc2ccc3ncc(-c4cn(C)nc4CN4CCN(C)CC4)cc3n2)c1 [Example 0912, N-(5-isopropylpyridazin-3-yl)-7-(1-methyl-3-((4-methylpiperazin-1-yl)methyl)-1H-pyrazol-4-yl)-1,5-naphthyridine-2-amine] | < 1 µM | < 1 µM |
| CCC(C)c1cnnc(Nc2ccc3ncc(-c4cn(C)nc4C)cc3n2)c1 (stereo not drawn) [Example 0916] | < 1 µM | < 1 µM |
| CCOC(C)c1cnnc(Nc2ccc3ncc(-c4cnn(C)c4)cc3n2)c1 (stereo not drawn) [Example 0920] | < 1 µM | < 1 µM |
| CCOC(C)c1cnnc(Nc2ccc3ncc(-c4cn(C)nc4C)cc3n2)c1 (stereo not drawn) [Example 0921] | < 1 µM | < 1 µM |
| COCc1cnnc(Nc2ccc3ncc(-c4cn(C)nc4C)cc3n2)c1 [Example 0923] | < 1 µM | < 1 µM |
| CN(C)S(=O)(=O)Cc1cnnc(Nc2ccc3ncc(-c4cnn(C)c4)cc3n2)c1 [Example 0924] | < 1 µM | < 1 µM |
| Cc1nn(C)cc1-c1cnc2ccc(Nc3cc(CS(=O)(=O)N(C)C)cnn3)nc2c1 [Example 0925, 1-(6-((7-(1,3-Dimethyl-1H-pyrazol-4-yl)-1,5-naphthyridin-2-yl)amino)pyridazin-4-yl)-N,N-dimethylmethane sulfonamide] | < 1 µM | < 1 µM |
| Cc1nn(C)cc1-c1cnc2ccc(Nc3cc(C4CCCCC4)cnn3)nc2c1 [Example 0926, N-(5-cyclohexylpyridazin-3-yl)-7-(1,3-dimethyl-1H-pyrazol-4-yl)-1,5-naphthyridine-2-amine] | < 1 µM | < 1 µM |
| Cn1cc(-c2cnc3ccc(Nc4cc(C5CCCCC5)cnn4)nc3c2)cn1 [Example 0927, N-(5-cyclohexylpyridazin-3-yl)-7-(1-methyl-1H-pyrazol-4-yl)-1,5-naphthyridine-2-amine] | < 1 µM | < 1 µM |
| CC(C)c1cnnc(Nc2ccc3ncc(-c4cnn(CC#N)c4)cc3n2)c1 [Example 0928, 2-(4-(6-((5-isopropylpyridazin-3-yl)amino)-1,5-naphthyridin-3-yl)-1H-pyrazol-1-yl)acetonitrile] | < 1 µM | < 1 µM |

| SMILES | IC50 (human PI3Kα protein) | IC50 [1] |
| --- | --- | --- |
| CC(C)c1cnnc(Nc2ccc3ncc(Br)cc3n2)c1 [Example 0929, 7-bromo-N-(5-isopropylpyridazin-3-yl)-1,5-naphthyridine-2-amine] | 1 to 10 µM | < 1 µM |
| CC(C)c1cnnc(Nc2ccc3ncc(-c4cn(C)nc4Br)cc3n2)c1 [Example 0931] | < 1 µM | < 1 µM |
| CC(C)c1cnnc(Nc2ccc3ncc(-c4cn(C)nc4N4CCC4)cc3n2)c1 [Example 0932] | < 1 µM | < 1 µM |
| CC(C)c1cnnc(Nc2ccc3ncc(-c4cn(C)nc4N4CCCCC4)cc3n2)c1 [Example 0936] | < 1 µM | < 1 µM |
| CC(C)c1cnnc(Nc2ccc3ncc(-c4cn(C)nc4N4CCCC4)cc3n2)c1 [Example 0937] | < 1 µM | < 1 µM |
| CC(C)c1cnnc(Nc2ccc3ncc(-c4cn(C)nc4NC4CCC4)cc3n2)c1 [Example 0939] | < 1 µM | < 1 µM |
| CC(C)c1cnnc(Nc2ccc3ncc(-c4cn(C)nc4N4CC5(CCO5)C4)cc3n2)c1 [Example 0941] | < 1 µM | < 1 µM |
| CC(C)c1cnnc(Nc2ccc3ncc(-c4cn(C)nc4N(C)C4COC4)cc3n2)c1 [Example 0943] | < 1 µM | < 1 µM |
| COCCN(C)c1nn(C)cc1-c1cnc2ccc(Nc3cc(C(C)C)cnn3)nc2c1 [Example 0945] | < 1 µM | < 1 µM |
| COCCNc1nn(C)cc1-c1cnc2ccc(Nc3cc(C(C)C)cnn3)nc2c1 [Example 0946] | < 1 µM | < 1 µM |
| COCCN(CCOC)c1nn(C)cc1-c1cnc2ccc(Nc3cc(C(C)C)cnn3)nc2c1 [Example 0947] | 1 to 10 µM | 1 to 10 µM |
| CC(C)c1cnnc(Nc2ccc3ncc(-c4cn(C)nc4NC4CCCC4)cc3n2)c1 [Example 0948] | < 1 µM | < 1 µM |
| CC(C)c1cnnc(Nc2ccc3ncc(-c4cn(C)nc4NC4CCCCCC4)cc3n2)c1 [Example 0949] | 1 to 10 µM | 1 to 10 µM |
| Cc1nn(C)cc1-c1cnc2ccc(Nc3cn(C(C)C)cn3)nc2c1 [Example 0950, 7-(1,3-dimethyl-1H-pyrazol-4-yl)-N-(1-isopropyl-1H-imidazol-4-yl)-1,5-naphthyridine-2-amine] | < 1 µM | 1 to 10 µM |
| CCOc1c(-c2cnn(C)c2)cnc2ccc(Nc3cc(C(C)C)cnn3)nc12 [Example 0951, 8-Ethoxy-N-(5-isopropylpyridazin-3-yl)-7-(1-methyl-1H-pyrazol-4-yl)-1,5-naphthyridine-2-amine] | < 1 µM | < 1 µM |

Next, values leading:

| IC50 (human PI3Kα protein) | IC50 [1] | SMILES |
| --- | --- | --- |
| < 1 µM | < 1 µM | CC(C)c1cnnc(Nc2ccc3ncc(-c4cn(C)nc4CN4CCN(c5cccnc5)CC4)cc3n2)c1 [Example 0910] |
| < 1 µM | < 1 µM | CC(C)c1cnnc(Nc2ccc3ncc(-c4cn(C)nc4COc4cccnn4)cc3n2)c1 [Example 0913, N-(5-isopropylpyridazin-3-yl)-7-(1-methyl-3-((pyridazin-3-yloxy)methyl)-1H-pyrazol-4-yl)-1,5-naphthyridine-2-amine] |
| < 1 µM | < 1 µM | COc1c(-c2cnn(C)c2)cnc2ccc(Nc3cc(C(C)C)cnn3)nc12 [Example 0914, N-(5-isopropylpyridazin-3-yl)-8-methoxy-7-(1-methyl-1H-pyrazol-4-yl)-1,5-naphthyridine-2-amine] |
| < 1 µM | < 1 µM | Cc1nn(C)cc1-c1cnc2ccc(Nc3cc(C(C)(C)C)cnn3)nc2c1 [Example 0917] |
| < 1 µM | < 1 µM | CCCc1cnnc(Nc2ccc3ncc(-c4cnn(C)c4)cc3n2)c1 [Example 0918] |
| 1 to 10 µM | < 1 µM | COCc1cnnc(Nc2ccc3ncc(-c4cnn(C)c4)cc3n2)c1 [Example 0922] |
| < 1 µM | < 1 µM | COC1CN(c2nn(C)cc2-c2cnc3ccc(Nc4cc(C(C)C)cnn4)nc3c2)C1 [Example 0930] |
| < 1 µM | < 1 µM | COCCOC1CN(c2nn(C)cc2-c2cnc3ccc(Nc4cc(C(C)C)cnn4)nc3c2)C1 [Example 0933] |
| < 1 µM | < 1 µM | CC(C)c1cnnc(Nc2ccc3ncc(-c4cn(C)nc4N4CC5(COC5)C4)cc3n2)c1 [Example 0934] |
| < 1 µM | 1 to 10 µM | CC(C)c1cnnc(Nc2ccc3ncc(-c4cn(C)nc4N4CCC(=O)N(C)CC4)cc3n2)c1 [Example 0935, 1-(4-(6-((5-isopropylpyridazin-3-yl)amino)-1,5-naphthyridin-3-yl)-1-methyl-1H-pyrazol-3-yl)-4-methyl-1,4-diazepan-5-one] |
| < 1 µM | < 1 µM | CC(C)c1cnnc(Nc2ccc3ncc(-c4cn(C)nc4N(C)C)cc3n2)c1 [Example 0938, 7-(3-(Dimethylamino)-1-methyl-1H-pyrazol-4-yl)-N-(5-isopropylpyridazin-3-yl)-1,5-naphthyridine-2-amine] |
| < 1 µM | < 1 µM | CC(C)c1cnnc(Nc2ccc3ncc(-c4cn(C)nc4NC4CCOC4)cc3n2)c1 (stereo not drawn) [Example 0940] |
| < 1 µM | < 1 µM | CC(C)c1cnnc(Nc2ccc3ncc(-c4cn(C)nc4CN4CCOCC4)cc3n2)c1 [Example 0942, N-(5-isopropylpyridazin-3-yl)-7-(1-methyl-3-(morpholinomethyl)-1H-pyrazol-4-yl)-1,5-naphthyridine-2-amine] |
| < 1 µM | < 1 µM | CCN(CC)c1nn(C)cc1-c1cnc2ccc(Nc3cc(C(C)C)cnn3)nc2c1 [Example 0944] |
